In patent US20250268845A1, “BONE REGENERATION COMPOSITION INCLUDING HORDENINE AND USE THEREOF” ([…]., priority 2023, published 2025):

Experiments:
osteoclasts [1] = assay: Dentin disc actin ring assay through immunofluorescence staining; format: cell-based, mice; settings: 10, 20, or 40 μM for 3 days, pre-osteoclasts from BMMs, compared to non-treatment; FIG. 5B
Experimental: (§1) Specifically, bone marrow-derived macrophages (BMMs) were isolated from 3- to 4-week-old mice and cultured. On day 5, the BMMs were treated with receptor activator of nuclear factors KB ligand (RANKL) and macrophage-colony stimulating factor (M-CSF) for 3 days to be differentiated into pre-osteoclasts. Thereafter, to confirm the degree of osteoclast activation, the pre-osteoclasts were treated with 10, 20, or 40 μM of hordenine for 3 days, and a bone resorption assay through hematoxylin staining and a dentin disc actin ring assay through immunofluorescence staining were performed to confirm the degree of osteoclast activation. Bone resorption assay is a method of seeding osteoclasts on a dentin disc, which is an experimental bone tissue simulating the dentin component of bone, and quantifying the extent to which osteoclasts eat away at the bone. When holes formed by bone erosion are quantified, the pit area is measured, and a lower measurement indicates a lower degree of bone erosion. The more extensively the disc is eroded, the more intensely the disc stains with hematoxylin, while less eroded areas stain more lightly. […]

osteoclasts [2] = assay: Bone resorption assay on dentin disc through hematoxylin staining; format: cell-based, mice; settings: 10, 20, or 40 μM for 3 days, pre-osteoclasts from BMMs, compared to non-treatment; FIG. 5A
Experimental: as §1

mesenchymal stem cells = assay: Differentiation of mesenchymal stem cells into chondrocytes, Alcian blue staining; format: cell-based; settings: 5 or 10 µM hordenine, compared to the group treated only with a differentiation medium, FIG. 1
Experimental: Specifically, mesenchymal stem cells were seeded at 2.5×10^4 cells/48 well and divided into a group treated only with the basic medium α-MEM, a group treated only with a differentiation medium (Chondrogenic media (CM)), and groups treated with 5 or 10 µM hordenine. After a few days, the degree of chondrocyte differentiation was evaluated by Alcian blue staining.

[3] = system: osteoarthritis induced by DMM; assay: Cartilage regeneration in DMM-induced osteoarthritis, Safranin O and fast green staining; format: in vivo, mice; settings: 2 mg/kg intra-articularly for 4 weeks from week 5 after DMM, examined at week 9
Experimental: Specifically, osteoarthritis was induced by incising the ligament that stabilizes the medial meniscus in the joint tissue of 9-week-old mice. Starting from week 5 after destabilization of the medial meniscus (DMM), 2 mg/kg of hordenine was injected intra-articularly for 4 weeks, and at week 9, the mice were sacrificed and the joint tissues were examined by staining with Safranin O and fast green. The experimental process is illustrated in FIG. 2, and the experimental results are illustrated in FIGS. 3A and 3B.

osteoclasts [4] = assay: LPS-induced bone destruction in mouse skull, TRAP staining; format: in vivo, mice; settings: 1 mg/kg intra-calvarially for 5 days after LPS 12.5 mg/kg; skulls harvested 6 days after the first LPS injection day; compared to LPS only; FIG. 6
Experimental: Specifically, 12.5 mg/kg of lipopolysaccharide (LPS) was injected intra-calvarially into the skull of 5-week-old male mice twice in total: once on the first injection day and once 2 days after the first injection day, thereby inducing bone destruction. Thereafter, 1 mg/kg of hordenine was injected intra-calvarially for 5 days, starting 1 day after the first LPS injection day. 6 days after the first LPS injection day, the mice were sacrificed and the skulls were harvested from the mice. Then, the degree of osteoclast differentiation was evaluated by tartrate-resistant acid phosphatase (TRAP) staining. The results thereof are illustrated in FIG. 6.

CN(C)CCc1ccc(O)cc1 [hordenine, 4-(2-dimethylaminoethyl) phenol]
number of osteoclasts forming actin rings (osteoclasts [1]): decreased in a concentration-dependent manner | hematoxylin staining (bone erosion of dentin disc) (osteoclasts [2]): became lighter in a concentration-dependent manner | pit area (osteoclasts [2]): reduced | degree of differentiation from mesenchymal stem cells into chondrocytes (mesenchymal stem cells): much higher | cartilage degradation (OARSI grade) [3]: decrease | osteophytes caused by osteoarthritis induction [3]: reduced | synovitis [3]: reduced | thickness of subchondral bone plate (SBP) [3]: reduced | cartilage (red portion) that had collapsed due to DMM ([3]; FIGS. 3A and 3B): restored | TRAP staining of skulls (degree of osteoclast differentiation) (osteoclasts [4]): lightly stained with TRAP
